# Experimental data published in ChEMBL document CHEMBL1201862, “PubChem BioAssay data set” (2004).
#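 A five-concentration, 48-hour dose response in 96-well plates underlies each endpoint, interpolated linearly between surrounding concentrations. Here, GI50 denotes the concentration required for 50% inhibition of growth.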 Active and inactive are the calls of the source. No stated cut-off is given here; in the data, active = GI50 up to about 1.1 µM and inactive = higher.
# Legend:
# Test in all cases: inhibition of tumour cell growth, NCI panel, 48 h
# 786-0 = tested on: 786-0
# A498 = tested on: A498
# A549 = tested on: A549
# ACHN = tested on: ACHN
# BT-549 = tested on: BT-549
# CAKI-1 = tested on: CAKI-1
# CCRF-CEM = tested on: CCRF-CEM
# COLO 205 = tested on: COLO 205
# DU-145 = tested on: DU-145
# EKVX = tested on: EKVX
# HCC 2998 = tested on: HCC 2998
# HCT-116 = tested on: HCT-116
# HCT-15 = tested on: HCT-15
# HL-60 = tested on: HL-60
# HOP-62 = tested on: HOP-62
# HOP-92 = tested on: HOP-92
# HT-29 = tested on: HT-29
# Hs-578T = tested on: Hs-578T
# IGROV-1 = tested on: IGROV-1
# K562 = tested on: K562
# KM12 = tested on: KM12
# LOX IMVI = tested on: LOX IMVI
# M14 = tested on: M14
# MCF7 = tested on: MCF7
# MDA-MB-231 = tested on: MDA-MB-231
# MDA-MB-435 = tested on: MDA-MB-435
# MDA-N = tested on: MDA-N
# MOLT-4 = tested on: MOLT-4
# Malme-3M = tested on: Malme-3M
# NCI-H226 = tested on: NCI-H226
# NCI-H23 = tested on: NCI-H23
# NCI-H460 = tested on: NCI-H460
# NCI-H522 = tested on: NCI-H522
# NCI/ADR-RES = tested on: NCI/ADR-RES
# OVCAR-3 = tested on: OVCAR-3
# OVCAR-4 = tested on: OVCAR-4
# OVCAR-5 = tested on: OVCAR-5
# OVCAR-8 = tested on: OVCAR-8
# PC-3 = tested on: PC-3
# RPMI-8226 = tested on: RPMI-8226
# RXF 393 = tested on: RXF 393
# SF-268 = tested on: SF-268
# SF-295 = tested on: SF-295
# SK-MEL-28 = tested on: SK-MEL-28
# SK-MEL-2 = tested on: SK-MEL-2
# SK-MEL-5 = tested on: SK-MEL-5
# SK-OV-3 = tested on: SK-OV-3
# SN12C = tested on: SN12C
# SNB-19 = tested on: SNB-19
# SNB-75 = tested on: SNB-75
# SR = tested on: SR
# SW-620 = tested on: SW-620
# T47D = tested on: T47D
# TK-10 = tested on: TK-10
# U-251 = tested on: U-251
# UACC-257 = tested on: UACC-257
# UACC-62 = tested on: UACC-62
# UO-31 = tested on: UO-31
# SF-539 = tested on: SF-539
structure (smiles),measurement,setting,value
CC1=NN(c2cccc(S(=O)(=O)O)c2)C2(C1)C(Cl)C(=O)N2c1nc2ccccc2s1 (configuration not stated),GI50,786-0,5.56 µM (inactive)
same,GI50,A498,18.2 µM (inactive)
same,GI50,A549,8.61 µM (inactive)
same,GI50,ACHN,6.81 µM (inactive)
same,GI50,BT-549,5.5 µM (inactive)
same,GI50,CAKI-1,2.9 µM (inactive)
same,GI50,CCRF-CEM,1.26 µM (inactive)
same,GI50,COLO 205,8.3 µM (inactive)
same,GI50,DU-145,11.3 µM (inactive)
same,GI50,EKVX,8.53 µM (inactive)
same,GI50,HCC 2998,15.1 µM (inactive)
same,GI50,HCT-116,6.47 µM (inactive)
same,GI50,HCT-15,4.04 µM
same,GI50,HL-60,2.61 µM (inactive)
same,GI50,HOP-62,5.75 µM (inactive)
same,GI50,HOP-92,2.57 µM (inactive)
same,GI50,HT-29,7.98 µM (inactive)
same,GI50,Hs-578T,11.7 µM (inactive)
same,GI50,IGROV-1,1.66 µM (inactive)
same,GI50,K562,3.86 µM (inactive)
same,GI50,KM12,9.23 µM (inactive)
same,GI50,LOX IMVI,1.25 µM (inactive)
same,GI50,M14,8.65 µM (inactive)
same,GI50,MCF7,8.89 µM (inactive)
same,GI50,MDA-MB-231,8.73 µM (inactive)
same,GI50,MDA-MB-435,6.85 µM (inactive)
same,GI50,MDA-N,13.1 µM (inactive)
same,GI50,MOLT-4,2.88 µM (inactive)
same,GI50,Malme-3M,5.83 µM (inactive)
same,GI50,NCI-H226,5.82 µM (inactive)
same,GI50,NCI-H23,4.61 µM (inactive)
same,GI50,NCI-H460,9.62 µM (inactive)
same,GI50,NCI-H522,1.81 µM (inactive)
same,GI50,NCI/ADR-RES,4.99 µM (inactive)
same,GI50,OVCAR-3,2.94 µM (inactive)
same,GI50,OVCAR-4,4.74 µM (inactive)
same,GI50,OVCAR-5,13.4 µM (inactive)
same,GI50,OVCAR-8,5.65 µM (inactive)
same,GI50,PC-3,10.5 µM (inactive)
same,GI50,RPMI-8226,1.83 µM (inactive)
same,GI50,RXF 393,8.28 µM (inactive)
same,GI50,SF-268,7.87 µM (inactive)
same,GI50,SF-295,13.8 µM (inactive)
same,GI50,SK-MEL-28,15.7 µM (inactive)
same,GI50,SK-MEL-2,4 µM (inactive)
same,GI50,SK-MEL-5,6.17 µM (inactive)
same,GI50,SK-OV-3,11.2 µM (inactive)
same,GI50,SN12C,5.37 µM (inactive)
same,GI50,SNB-19,11.2 µM (inactive)
same,GI50,SNB-75,4.05 µM (inactive)
same,GI50,SR,7.08 µM (inactive)
same,GI50,SW-620,4.54 µM (inactive)
same,GI50,T47D,9.35 µM (inactive)
same,GI50,TK-10,14.2 µM (inactive)
same,GI50,U-251,5.85 µM (inactive)
same,GI50,UACC-257,13.6 µM (inactive)
same,GI50,UACC-62,6.81 µM (inactive)
same,GI50,UO-31,3.55 µM (inactive)
COc1ccc2c(c1)CCC(CN1CCN(CCOC(c3ccccc3)c3ccccc3)CC1)C2O (configuration not stated),GI50,786-0,16.6 µM (inactive)
same,GI50,A498,10.5 µM (inactive)
same,GI50,A549,18.2 µM (inactive)
same,GI50,ACHN,12.6 µM (inactive)
same,GI50,BT-549,14 µM (inactive)
same,GI50,CAKI-1,15.7 µM (inactive)
same,GI50,CCRF-CEM,16.3 µM (inactive)
same,GI50,COLO 205,12.6 µM (inactive)
same,GI50,DU-145,20.1 µM (inactive)
same,GI50,EKVX,11.1 µM (inactive)
same,GI50,HCC 2998,4.28 µM (inactive)
same,GI50,HCT-116,12.2 µM (inactive)
same,GI50,HCT-15,10.8 µM
same,GI50,HL-60,2.81 µM (inactive)
same,GI50,HOP-62,19 µM (inactive)
same,GI50,HOP-92,14.4 µM (inactive)
same,GI50,HT-29,5.04 µM (inactive)
same,GI50,Hs-578T,19.3 µM (inactive)
same,GI50,IGROV-1,15.4 µM (inactive)
same,GI50,K562,6.58 µM (inactive)
same,GI50,KM12,18.3 µM (inactive)
same,GI50,LOX IMVI,17.3 µM (inactive)
same,GI50,M14,14.2 µM (inactive)
same,GI50,MCF7,18.9 µM (inactive)
same,GI50,MDA-MB-231,15.7 µM (inactive)
same,GI50,MDA-MB-435,16.6 µM (inactive)
same,GI50,MDA-N,14.3 µM (inactive)
same,GI50,MOLT-4,11.8 µM (inactive)
same,GI50,Malme-3M,17.5 µM (inactive)
same,GI50,NCI-H226,16.3 µM (inactive)
same,GI50,NCI-H23,15.1 µM (inactive)
same,GI50,NCI-H460,16.7 µM (inactive)
same,GI50,NCI-H522,16.6 µM (inactive)
same,GI50,NCI/ADR-RES,13.8 µM (inactive)
same,GI50,OVCAR-3,15.3 µM (inactive)
same,GI50,OVCAR-4,15.9 µM (inactive)
same,GI50,OVCAR-5,16.6 µM (inactive)
same,GI50,OVCAR-8,14.5 µM (inactive)
same,GI50,PC-3,13.5 µM (inactive)
same,GI50,RPMI-8226,11 µM (inactive)
same,GI50,RXF 393,14.1 µM (inactive)
same,GI50,SF-268,16.6 µM (inactive)
same,GI50,SF-295,18.9 µM (inactive)
same,GI50,SF-539,11.3 µM (inactive)
same,GI50,SK-MEL-28,16.5 µM (inactive)
same,GI50,SK-MEL-2,17.5 µM (inactive)
same,GI50,SK-MEL-5,8.3 µM (inactive)
same,GI50,SK-OV-3,17.9 µM (inactive)
same,GI50,SN12C,13.5 µM (inactive)
same,GI50,SNB-19,18.3 µM (inactive)
same,GI50,SNB-75,17.9 µM (inactive)
same,GI50,SR,16.7 µM (inactive)
same,GI50,SW-620,20 µM (inactive)
same,GI50,T47D,16.1 µM (inactive)
same,GI50,TK-10,14.1 µM (inactive)
same,GI50,U-251,14.8 µM (inactive)
same,GI50,UACC-257,13 µM (inactive)
same,GI50,UACC-62,13.5 µM (inactive)
same,GI50,UO-31,15.4 µM (inactive)
